One data set concerns rhesus serum proteins. Briefly: Serum binding determination by ultrafiltration/HPLC. In kind it is in vitro ADME. To be noted: by HPLC.
The next data set has as its system rat serum proteins. The data set is described as above. In kind it is in vitro ADME. The conditions noted are these: by HPLC.
Data set [1] deals with S. aureus ATCC 13709 (Smith diffuse). Briefly: Murine lethal bacteremic peritonitis (septicemia) efficacy. In kind it is in vivo, mice. The conditions noted are these: Staphylococcus aureus, ATCC13709, sc, read-out: Efficacy in murine septicemia % survival. The gist of the method:
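Male Swiss-Webster mice, 10/group, challenged i.p. with 2.98×10^7 cfu log-phase bacteria in 7% hog-gastric mucin. Serial two-fold doses given s.c. at 0 and 2 h post-challenge; ED50 by probit from survival.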

Molecules are shown by their SMILES.

Regarding `NCCSCc1cnccc1SC1=C(C(=O)O)N2C(=O)C(NC(=O)/C(=N\O)c3csc(N)n3)C2SC1` (stereo not shown) [Cmpd 19], the “Serum Binding rhesus (% of compound bound to serum)” value with rhesus serum proteins is given as 83%. Moreover, the “Serum Binding rat (% of compound bound to serum)” value in the data set on rat serum proteins worked out at 76%. Also, in data set [1] (dose 0.078 mg/kg s.c. at 0 and 2 h post-challenge), the responders at 0.078 mg/kg stood at 20%. Besides, the responders at 0.156 mg/kg in data set [1] (dose 0.156 mg/kg s.c. at 0 and 2 h post-challenge) worked out at 20%. Further, the responders at 0.312 mg/kg in data set [1] (dose 0.312 mg/kg s.c. at 0 and 2 h post-challenge) was 20%. Besides, in data set [1] (dose 0.625 mg/kg s.c. at 0 and 2 h post-challenge), the responders at 0.625 mg/kg was 80%. Further, in data set [1] (dose 1.25 mg/kg s.c. at 0 and 2 h post-challenge), the responders at 1.25 mg/kg was 100%.

The record behind these values is US6723716B1, “7-acylamino-3-heteroarylthio-3-cephem carboxylic acid antibiotics and prodrugs thereof” (Essential Therapeutics, Inc., priority 1999, dated 2004).
